Reference: PMC8709172, “High-Throughput Screening Campaign Identified a Potential Small Molecule RXFP3/4 Agonist” (Molecules, 2021)
Like-named read-outs stand apart in the source and are kept apart here.

Legend:
human RXFP3 (hRXFP3) [1] = molecular target: T1, human RXFP3 (hRXFP3) (Homo sapiens, UniProt Q9NSD7); experiment: cell-based; set-up: species or system CHO-K1; Europium-labelled H3 B1-22R competition binding on CHO-K1 cells stably expressing RXFP3; settings: vs 5 nM Eu-H3 B1-22R
T1 sequence (Q9NSD7 1-469): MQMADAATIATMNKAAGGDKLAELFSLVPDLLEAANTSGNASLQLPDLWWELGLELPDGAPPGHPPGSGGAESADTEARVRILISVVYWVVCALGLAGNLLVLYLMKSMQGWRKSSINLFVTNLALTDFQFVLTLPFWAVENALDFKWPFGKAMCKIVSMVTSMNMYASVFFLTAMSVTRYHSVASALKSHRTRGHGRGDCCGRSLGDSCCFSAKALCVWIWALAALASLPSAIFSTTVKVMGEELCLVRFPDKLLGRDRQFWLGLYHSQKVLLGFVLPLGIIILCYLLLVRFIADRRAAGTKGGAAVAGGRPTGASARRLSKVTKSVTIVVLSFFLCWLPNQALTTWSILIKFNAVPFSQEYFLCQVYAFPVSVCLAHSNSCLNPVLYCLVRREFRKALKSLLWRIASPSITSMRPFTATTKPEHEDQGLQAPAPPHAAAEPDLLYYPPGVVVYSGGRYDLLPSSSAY
Procedure: CHO-K1 cells stably transfected with RXFP3 were plated onto pre-coated poly-L-lysine 96-well plates for the binding assay performed using 5 nM europium (Eu)-H3 B1-22R as previously described with triplicate determinations within assay and a minimum of three independent experiments. Data are presented as means ± SEM. pKi values were calculated using one-site fit Ki and a Kd value of 26 nM for H3 B1-22R [47].

human RXFP3 (hRXFP3) [2] = molecular target: T1, human RXFP3 (hRXFP3); experiment: competition binding with europium-labelled H3 B1-22R on RXFP3 CHO-K1 cells; type: cell-based; settings: 5 nM Eu-H3 B1-22R, one-site fit Ki, tracer Kd 26 nM; competitive
human RXFP3 (hRXFP3) [3] = molecular target: T1, human RXFP3 (hRXFP3); experiment: cell-based; set-up: HTS inhibition of forskolin-stimulated cAMP, TR-FRET; % activation relative to R3/I5; settings: hRXFP3-CHO; primary screen, single dose; read-out: % activation
Procedure: (§1) The HTS campaign was carried out in white 384-well plates by measuring the inhibition of forskolin-stimulated cAMP accumulation in hRXFP3-CHO cells. Briefly, the positive control (5 nM R3/I5) and negative control (1% DMSO) were located at the 64 wells of the outer four columns on both sides with 32 replicates, respectively. The individual screening compounds were loaded at the center twenty columns with an average final concentration of 10 μM in a single-dose format without replicates. Time-resolved fluorescence resonance energy transfer (TR-FRET) signals were read by an EnVision multilabel plate reader (PerkinElmer). Z’ factor, coefficient of variation (CV) and signal-to-background ratio (S/B) were calculated according to the literature. Positive control was regarded as 100% activation, while negative control represented no activation. Compounds showing greater than 50% activation were considered hits, and secondary screening using the same assay was performed to eliminate false positives. cAMP accumulation assay was performed in hRXFP3-CHO cells at a density of 5 × 10^5 cells/mL. The cells were treated with different concentrations of compounds plus 25 μM forskolin and 500 μM IBMX for 30 min at room temperature (RT). cAMP-d2 conjugate and cryptate conjugate working solutions were then diluted and added to the plates separately. Plates were incubated at RT for 60 min and the fluorescence intensity measured at 620 nm and 665 nm by an EnVision multilabel plate reader. The parental CHO cells were applied to examine off-target effect, while hRXFP4-CHO cells were utilized for selectivity assessment.

human RXFP3 (hRXFP3) [4] = molecular target: T1, human RXFP3 (hRXFP3); experiment: cAMP accumulation TR-FRET in hRXFP3-CHO cells; type: cell-based
human RXFP4 (hRXFP4) = human RXFP4 (hRXFP4) (Homo sapiens, UniProt Q8TDU9); experiment: cAMP accumulation TR-FRET in hRXFP4-CHO cells; type: cell-based
human RXFP3 (hRXFP3) [5] = molecular target: T1, human RXFP3 (hRXFP3); experiment: cell-based; set-up: TR-FRET inhibition of forskolin-stimulated cAMP accumulation, single-dose primary screen, percent of R3/I5 control; settings: CHO; primary screen, relative to 5 nM R3/I5; read-out: % activation
Procedure: as §1, with “The cells were treated with different concentrations of compounds plus 25 μM forskolin and 500 μM IBMX for 30 min at room temperature (RT). cAMP-d2 conjugate and cryptate conjugate working solutions were then diluted and added to the plates separately.” left out, “The parental CHO cells were applied to examine off-target effect, while hRXFP4-CHO cells were utilized for selectivity assessment.” left out

Sequence of human RXFP4 (hRXFP4) (Q8TDU9 whole entry): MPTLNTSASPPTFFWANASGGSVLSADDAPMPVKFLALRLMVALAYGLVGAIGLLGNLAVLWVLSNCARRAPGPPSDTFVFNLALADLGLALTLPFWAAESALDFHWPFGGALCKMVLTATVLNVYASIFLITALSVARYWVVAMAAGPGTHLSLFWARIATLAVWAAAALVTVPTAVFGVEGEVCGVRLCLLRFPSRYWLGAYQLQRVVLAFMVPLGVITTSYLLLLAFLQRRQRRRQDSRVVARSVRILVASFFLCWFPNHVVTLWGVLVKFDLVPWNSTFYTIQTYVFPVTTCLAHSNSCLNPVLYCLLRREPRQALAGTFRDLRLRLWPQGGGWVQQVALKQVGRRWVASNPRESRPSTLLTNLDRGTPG

Structure (SMILES) | activity at 10 µM (human RXFP3 (hRXFP3) [3]) | also measured
CC(C)(CCc1ccc(NS(=O)(=O)c2ccccc2)cc1)NC[C@H](O)COc1ccc(O)c(NS(C)(=O)=O)c1 [S-WNN0109-C011] |  | Ki (human RXFP3 (hRXFP3) [1]): 91.2 µM; pKi (human RXFP3 (hRXFP3) [2]): further confirmed the direct binding of WNN0109-C011 and its two enantiomers with RXFP3
Nc1ccc2sc3[nH]c(=O)c(=O)[nH]c3c2c1 [WNN0003-B006] | 54% | 
O=c1[nH]c2scc(C3CCCCC3)c2[nH]c1=O [WNN0003-F007] | 51% | 
CS/C(=N/C#N)Nc1ccc2c(c1)OCCO2 [WNN0027-G008] | 56% | 
CC(C)(CCc1ccc(NS(=O)(=O)c2ccccc2)cc1)NC[C@@H](O)COc1ccc(O)c(NS(C)(=O)=O)c1 [R-WNN0109-C011] |  | Ki (human RXFP3 (hRXFP3) [1]): 31.6 µM; pKi (human RXFP3 (hRXFP3) [2]): further confirmed the direct binding of WNN0109-C011 and its two enantiomers with RXFP3
CC(C)(CCc1ccc(NS(=O)(=O)c2ccccc2)cc1)NCC(O)COc1ccc(O)c(NS(C)(=O)=O)c1 (racemic) [WNN0109-C011] |  | Ki (human RXFP3 (hRXFP3) [1]): 41.7 µM; EC50 (human RXFP3 (hRXFP3) [4]): 2.51 µM; pKi (human RXFP3 (hRXFP3) [2]): further confirmed the direct binding of WNN0109-C011 and its two enantiomers with RXFP3; EC50 (human RXFP4 (hRXFP4)): 33.9 µM; activity at 10 µM (human RXFP3 (hRXFP3) [5]): 85%
Cc1sc2[nH]c(=O)c(=O)[nH]c2c1C [WNN0003-G011] | 54% | 
Cc1csc2[nH]c(=O)c(=O)n(C)c12 [WNN0004-D007] | 57% | 
O=C(O)Cn1c(=O)c(=O)[nH]c2c(Br)cc(Br)cc21 [WNN0002-F006] | 73% | 
O=C1NCCCC1C1=NC(CO)(CO)CO1 (stereo not drawn) [WNN0027-E003] | 53% | 

More lines, main results first:

activity at 10 µM (human RXFP3 (hRXFP3) [3]) | Structure (SMILES) | also measured
82% | O=c1[nH]c2ccccc2n(C(c2ccccc2)c2ccccc2)c1=O [WNN0119-H005] | 
50% | C[N+](C)=c1ccc2nc3ccc(N)cc3sc-2c1 [WNN0314-F004] | 
78% | CSc1nccc(-c2ccc(Br)s2)n1 [WNN0196-B004] | 
56% | O=C(CCCCN1CCCCC1)c1ccccc1 [WNN0028-D009] | 
130% | O=C(O)C1CCN(CCC=C2c3ccccc3CCc3cc(-c4ccccc4)ccc32)CC1 [WNN0063-E009] | 
51% | CN(C)c1ccc2nc3ccc(=[N+](C)C)cc-3sc2c1 [WNN0314-G003] | 
65% | O=C(c1ccccc1O)N1CCc2nc3ncccc3cc2C1 [WNN0195-H002] | 
68% | O=C(O)C1CCCN(CCC=C2c3ccccc3CCc3cc(-c4ccccc4)ccc32)C1 (stereo not drawn) [WNN0063-E008] | 
